Test results from patent US20240174625A1, “COMPOSITIONS AND METHODS FOR TREATING TAUOPATHIES” (The Regents of the University of California, priority 2021, published 2024).

Legend:
[1] = molecular target: T1, NPEPPS (Homo sapiens, UniProt P55786); experiment: Cell-based NPEPPS activity assay (Q-AMC fluorescence); details: log10 transformed; EC50 = concentration that elevates 50% NPEPPS activity (150% of DMSO baseline); HEK293T cells
T1 construct: endogenous in cells; host or cells: HEK293T
In short: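 HEK293T cells (16,500/well) on poly-L-ornithine in minimal medium with compounds in 20-step 2-fold dilution for 24 h, then H-Gln-AMC added (30 μl of 200 μM). Fluorescence (ex/em 360/460 nm) read at addition and 3 h later; change in fluorescence taken as NPEPPS activity, giving EC50 versus DMSO control.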

[2] = system: HEK293T cells; experiment: Cell viability assay (CellTiter Glo); assay type: cell-based, human
In short: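 HEK293T cells seeded at 16,500 per well on poly-L-ornithine in minimal medium with amino acids, vitamins and AlbuMax in HBS, with compound added as a 20-step 2-fold dilution. CellTiter Glo luminescence was read after 24 h. Viability is the signal normalized to DMSO control.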

[3] = system: phosphorylated tau; experiment: Tau histopathology in hTau^P301S mouse model of tauopathy; assay type: in vivo; details: hTau^P301S homozygous mice; 20 mg/kg/day s.c. for 28 days; compared to vehicle
Source text: Adult hTau^P301S homozygous mice (Tg2541Godt mice, a transgenic mouse model of tauopathy carrying a human Tau^P301S mutation^19 and wild-type (WT) littermates on a C57BL/6J background of both genders were used in the in vivo efficacy on Tau histopathology experiments. hTauP301S homozygous mice were obtained as gifts from Dr. Michel Goedert at MRC Laboratory of Molecular Biology, Cambridge, UK and Dr. Stanley Prusiner at UCSF, USA, and were re-derived onto a pure C57BL/6J genetic background by Dr. Prusiner's lab. Mice were periodically outcrossed with WT C57BL/6J mice (Strain #000664) from Jackson Laboratory (Bar Harbor, ME) to maintain genetic diversity. Animals were group-housed in a temperature-controlled facility (73±2° F., 45% humidity, regular 12-hour light/dark cycle, lights on at 7 AM), with food and water ad libitum. All experimental procedures were approved by the ARC administrative office at the University of California Los Angeles (UCLA) and the UCLA institutional animal care and use committee (IACUC) and followed the USDA Animal Welfare Act Regulations, the Public Health Service (PHS) Policy on Humane Care and Use of Laboratory Animals, and the Guide for the Care and Use of Laboratory Animals. Adult male WT mice on a C57BL/6J background (Strain #000664), purchased from Jackson Laboratory (Bar Harbor, ME), were used in the in vivo pharmacokinetics and blood-brain barrier penetration studies. Animals were randomly assigned to experimental groups and tested by experimenters blinded to experimental conditions.
Osmotic minipump (model #2004) were purchased from Alzet (Cupertino, CA, USA) and implanted into mice subcutaneously (s.c.) following the manufacturer's instruction, as previously described^20. Briefly, animals are placed on a thermoregulation device and anesthetized using isoflurane [4-5% (induction), 1.5-2.5% (maintenance)]. A sterile drape is used to create a sterile field for surgery after animal preparation. […] Animals are monitored observed continuously during the immediate anesthetic-recovery period until the animal is ambulatory. Animals are monitored daily after anesthetic recovery for 7 days. […]
Assessment of tau histopathological in a mouse model of tauopathy Effects of pharmacological manipulations of JMM compounds on tau histopathology were evaluated via osmotic pump chronic infusion at 20 mg/kg/day s.c. over 28 consecutive days in hTau^P301S homozygous mice or WT littermates, starting treatment at the onset of Tau histopathology (i.e., 4.2 months old age). […] Animals are weighted (g) and rectal temperature (° C.) was measured using a thermometer equipped with a mouse rectal probe (Braintree Scientific Inc., Braintree, MA) on treatment day 27. […]

T1 sequence (P55786 whole entry): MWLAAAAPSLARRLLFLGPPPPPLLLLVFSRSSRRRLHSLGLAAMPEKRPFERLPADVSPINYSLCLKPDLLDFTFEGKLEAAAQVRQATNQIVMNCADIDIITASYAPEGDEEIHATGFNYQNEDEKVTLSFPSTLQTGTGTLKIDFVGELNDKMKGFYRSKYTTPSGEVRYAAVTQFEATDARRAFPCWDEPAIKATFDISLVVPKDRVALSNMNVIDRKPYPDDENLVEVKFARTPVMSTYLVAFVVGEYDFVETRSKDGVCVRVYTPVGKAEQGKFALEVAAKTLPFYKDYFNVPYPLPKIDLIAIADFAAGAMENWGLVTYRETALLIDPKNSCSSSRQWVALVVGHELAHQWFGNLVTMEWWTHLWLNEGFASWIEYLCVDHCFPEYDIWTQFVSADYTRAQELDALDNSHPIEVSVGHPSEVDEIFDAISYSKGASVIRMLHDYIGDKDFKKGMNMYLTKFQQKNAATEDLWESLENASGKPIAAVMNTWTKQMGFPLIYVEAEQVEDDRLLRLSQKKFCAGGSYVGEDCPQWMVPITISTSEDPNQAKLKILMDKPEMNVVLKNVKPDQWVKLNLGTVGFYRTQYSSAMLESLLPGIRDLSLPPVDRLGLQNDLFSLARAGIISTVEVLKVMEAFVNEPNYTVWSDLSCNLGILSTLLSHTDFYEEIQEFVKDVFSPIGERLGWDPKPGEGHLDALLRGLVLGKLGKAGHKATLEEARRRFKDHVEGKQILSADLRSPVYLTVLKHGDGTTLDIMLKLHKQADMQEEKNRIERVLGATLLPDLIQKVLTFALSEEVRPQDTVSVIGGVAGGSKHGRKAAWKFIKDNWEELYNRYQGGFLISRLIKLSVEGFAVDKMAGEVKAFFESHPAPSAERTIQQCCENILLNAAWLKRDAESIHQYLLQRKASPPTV

EC50 [1]: 13.2 µM
Structure (SMILES): FC(F)(F)c1ccc(CNc2nsc3cccc(OCc4ccccc4)c23)cc1 [JMM062]
IC50 ([2]; Homo sapiens, HEK-293T, log10 transformed, IC50 = concentration that suppresses 50% cell viability, HEK293T cells): 18.6 µM | Therapeutic index ([2]; ratio of IC50 (cell viability) over EC50 (NPEPPS activity)): 1.42 | tau histopathology in the cortex (phosphorylated tau staining) [3]: reduced
